This passage reports IC50 results from ChEMBL document CHEMBL5729568, “Ras inhibitors” (2023).

Some results are limits rather than exact numbers.

The target of assay [1] is GTPase KRas (Homo sapiens, UniProt P01116). Description: The purpose of this biochemical assay is to measure the ability of test compounds to covalently label nucleotide-loaded K-Ras isoforms. […] Analysis of raw data may be carried out using Waters MassLynx MS software, with % bound calculated from the deconvoluted protein peaks for labeled and unlabeled K-Ras.
The nature of assay [2]: (§1) Biochemical Assay: A variety of Ras proteins may be inhibited by compounds of the present invention (e.g., K-Ras, N-Ras, H-Ras, and mutants thereof at positions 12, 13 and 61, such as G12C, G12D, G12V, G12S, G13C, G13D, and Q61L, and others described herein). The purpose of this biochemical assay is to measure the ability of test compounds to covalently label nucleotide-loaded K-Ras isoforms. […] The sample is incubated at 25? C. for a time period of up to 24 hours prior to quenching by the addition of 10 uL of 5% Formic Acid. Quenched samples are centrifuged at 15000 rpm for 15 minutes in a benchtop centrifuge before injecting a 10 uL aliquot onto a reverse phase C4 column and eluting into the mass spectrometer with an increasing acetonitrile gradient in the mobile phase. Analysis of raw data may be carried out using Waters MassLynx MS software, with % bound calculated from the deconvoluted protein peaks for labeled and unlabeled K-Ras.

Assay [3] in a line: as §1. The source holds these as a separate data set.
The nature of assay [4]: as §1. This is another data set of the same source.
Assay [5] can be described thus: as §1. The source holds these as a separate data set.
Assay [6] is described as follows: as §1. The source holds these as a separate data set.
Assay [7] in a line: as §1. This is another data set of the same source.
Assay [8] in a line: as §1. The source holds these as a separate data set.

As to `C=CC(=O)N1CC[C@H](C(=O)N(C)[C@H](C(=O)N[C@H]2Cc3cc(O)cc(c3)-c3ccc4c(c3)c(c(-c3ccc(C5CCN(C)CC5)nc3)n4CC)CC(C)(C)COC(=O)[C@@H]3CCCN(N3)C2=O)C(C)C)C1`, the half-inhibitory concentration (IC50) entry is “in the range around 0.55 µM” in assay [1] and “in the range around 5.5 µM” in assay [2].

As to `C=CC(=O)N1CC(C(=O)N(C)[C@H](C(=O)N[C@H]2Cc3cc(O)cc(c3)-c3ccc4c(c3)c(c(-c3cccnc3COC)n4CC)CC(C)(C)COC(=O)[C@@H]3CCCN(N3)C2=O)C(C)C)C1`, the figures for the 50% inhibitory concentration (IC50) result in assay [1] and in assay [2] were “in the range around 0.055 µM” and “in the range around 5.5 µM”, respectively.

`C=CC(=O)N1CC[C@H](C(=O)N(C)[C@H](C(=O)N[C@H]2Cc3cc(O)cc(c3)-c3ccc4c(c3)c(c(-c3ccccc3CN(C)C)n4CC)CC(C)(C)COC(=O)[C@@H]3CCCN(N3)C2=O)C(C)C)C1`: the concentration for half-maximal inhibition (IC50) entry in assay [1] is “in the range around 0.055 µM”.

In the case of `C=CC(=O)N1CC[C@H](C(=O)N(C)[C@H](C(=O)N[C@H]2Cc3cc(O)cc(c3)-c3ccc4c(c3)c(c(-c3cnn(C)c3)n4CC)CC(C)(C)COC(=O)[C@@H]3CCCN(N3)C2=O)C(C)C)C1`, the figures for the IC50 entry in assay [1] and in assay [2] were “in the range around 0.55 µM” and “in the range around 5.5 µM”, respectively.

Take `C=CC(=O)N1CC[C@H](C(=O)N(C)[C@H](C(=O)N[C@H]2Cc3cc(O)cc(c3)-c3ccc4c(c3)c(c(-c3cncc(CCN(C)C)c3)n4CC)CC(C)(C)COC(=O)[C@@H]3CCCN(N3)C2=O)C(C)C)C1`: the 50% inhibitory concentration (IC50) result was “in the range around 0.55 µM” in assay [1] and “in the range around 5.5 µM” in assay [2].

With `CCn1c(-c2ccccc2COC)c2c3cc(ccc31)-c1cc(O)cc(c1)C[C@H](NC(=O)[C@H](C(C)C)N(C)C(=O)[C@H]1CCN(C(=O)/C=C/CN(C)C)C1)C(=O)N1CCC[C@H](N1)C(=O)OCC(C)(C)C2`, the IC50 result in assay [1] is “in the range around 0.055 µM”.

Regarding `C=CC(=O)N1CC[C@H](C(=O)N(C)[C@H](C(=O)N[C@H]2Cc3cc(O)cc(c3)-c3ccc4c(c3)c(c(C3=C(COC)COCC3)n4CC)CC(C)(C)COC(=O)[C@@H]3CCCN(N3)C2=O)C(C)C)C1`, the IC50 result in assay [1] is “in the range around 0.055 µM”.

Regarding `C=CC(=O)N1CC[C@H](C(=O)N(C)[C@H](C(=O)N[C@H]2Cc3cc(O)cc(c3)-c3ccc4c(c3)c(c(-c3ccc(CN(C)C)cc3COC)n4CC)CC(C)(C)COC(=O)[C@@H]3CCCN(N3)C2=O)C(C)C)C1`, the half-inhibitory concentration (IC50) entry in assay [1] was “in the range around 0.055 µM”.

Turning to `C=CC(=O)N1CC[C@H](C(=O)N(C)[C@H](C(=O)N[C@H]2Cc3cc(O)cc(c3)-c3ccc4c(c3)c(c(-c3cccnc3COC)n4CC#N)CC(C)(C)COC(=O)[C@@H]3CCCN(N3)C2=O)C(C)C)C1`, in assay [1], the IC50 entry is “in the range around 0.055 µM”.

Take `C=CC(=O)N1CC(OC[C@H](C(=O)N[C@H]2Cc3cc(F)cc(c3)-c3ccc4c(c3)c(c(-c3cccnc3C(C)OC)n4CC(F)(F)F)CC(C)(C)COC(=O)[C@@H]3CCCN(N3)C2=O)C(C)C)C1` (stereo partly drawn): the half-maximal inhibitory concentration (IC50) result in assay [3] was “in the range around 5.5 µM”; in assay [4], “in the range around 0.55 µM”; in assay [2], “in the range around 5.5 µM”; in assay [5], “in the range around 5.5 µM”; in assay [6] it was “in the range around 0.55 µM”; in assay [7], “in the range around 0.55 µM”. The IC50 entry in assay [8] is “in the range around 5.5 µM”.

Turning to `CCn1c(-c2cccnc2C(C)OC)c2c3cc(ccc31)N1CCO[C@@H](C[C@H](NC(=O)[C@@H](COC3CCN(C(=O)C#CC(C)(C)N(C)C)CC3)C(C)C)C(=O)N3CCC[C@H](N3)C(=O)OCC(C)(C)C2)C1` (stereo partly drawn), the IC50 in assay [3] was greater than 10 µM; in assay [4], “in the range around 5.5 µM”; in assay [2] it was greater than 10 µM; in assay [5], greater than 10 µM; in assay [6], greater than 10 µM; in assay [7] it was “in the range around 0.055 µM”. Further, the IC50 in assay [8] was greater than 10 µM.

With `C=CC(=O)C1CC[C@H](C(=O)C(C)[C@H](C(=O)N[C@H]2Cc3nc(cs3)-c3ccc4c(c3)c(c(-c3cccnc3C(C)OC)n4CC)CC(C)(C)COC(=O)[C@@H]3CCCN(N3)C2=O)C(C)C)C1` (stereo partly drawn), the half-maximal inhibitory concentration (IC50) entry in assay [3] is “in the range around 5.5 µM”; in assay [4], “in the range around 5.5 µM”; in assay [2] it was greater than 10 µM; in assay [5], greater than 10 µM; in assay [6], “in the range around 5.5 µM”; in assay [7], “in the range around 0.55 µM”. The 50% inhibitory concentration (IC50) result in assay [8] was “in the range around 5.5 µM”.

In the case of `C=CC(=O)N1CC[C@H](C(=O)N(C)[C@H](C(=O)N[C@H]2Cc3cc(OC(=O)N(C)CC(=O)O)cc(c3)-c3ccc4c(c3)c(c(-c3ccccc3CCOC)n4CC)CC(C)(C)COC(=O)[C@@H]3CCCN(N3)C2=O)C(C)C)C1`, the 50% inhibitory concentration (IC50) result in assay [1] is “in the range around 0.55 µM”.

With `CCn1c(-c2cccnc2C(C)OC)c2c3cc(ccc31)N1CCO[C@@H](C[C@H](NC(=O)[C@H](C(C)C)N(C)C(=O)C3(F)CCN(C(=O)C#CC(C)(C)N(C)C)CC3)C(=O)N3CCC[C@H](N3)C(=O)OCC(C)(C)C2)C1` (stereo partly drawn), the half-maximal inhibitory concentration (IC50) entry in assay [3] is “in the range around 5.5 µM”; in assay [4], “in the range around 0.55 µM”; in assay [2] it was “in the range around 5.5 µM”; in assay [5], “in the range around 5.5 µM”; in assay [6], “in the range around 5.5 µM”; in assay [7], less than 0.01 µM. In assay [8], the half-inhibitory concentration (IC50) entry was “in the range around 5.5 µM”.

As to `COC(C)c1ncccc1-c1c2c3cc(ccc3n1CC(F)(F)F)-c1cc(cc(C(F)F)c1)C[C@H](NC(=O)[C@@H](COC1CN(C(=O)C#CC(C)(C)N(C)C)C1)C(C)C)C(=O)N1CCC[C@H](N1)C(=O)OCC(C)(C)C2` (stereo partly drawn), the IC50 in assay [3] is greater than 10 µM; in assay [4], greater than 10 µM; in assay [2], greater than 10 µM; in assay [5], greater than 10 µM; in assay [6], greater than 10 µM; in assay [7], “in the range around 0.55 µM”. For the same compound, the IC50 in assay [8] was greater than 10 µM.

Take `C=CC(=O)N1CCOC2(CCN(C(=O)N(C)[C@H](C(=O)N[C@H]3C[C@H]4CN(CCO4)c4ccc5c(c4)c(c(-c4cccnc4C(C)OC)n5CC)CC(C)(C)COC(=O)[C@@H]4CCCN(N4)C3=O)C(C)C)CC2)C1` (stereo partly drawn): the half-inhibitory concentration (IC50) result in assay [3] was “in the range around 0.55 µM”; in assay [4], “in the range around 0.055 µM”; in assay [2], “in the range around 0.55 µM”; in assay [5], “in the range around 5.5 µM”; in assay [6], “in the range around 0.55 µM”; in assay [7], “in the range around 0.55 µM”. Further, the IC50 entry in assay [8] is “in the range around 5.5 µM”.

Take `CCn1c(-c2cccnc2C(C)OC)c2c3cc(ccc31)-c1cc(F)cc(c1)C[C@H](NC(=O)[C@@H](COC1CN(C(=O)C#CC(C)(C)N(C)C)C1)C(C)C)C(=O)N1CCC[C@H](N1)C(=O)OCC(C)(C)C2` (stereo partly drawn): the concentration for half-maximal inhibition (IC50) in assay [3] is greater than 10 µM; in assay [4], “in the range around 5.5 µM”; in assay [2], “in the range around 5.5 µM”; in assay [5], greater than 10 µM; in assay [6] it was “in the range around 5.5 µM”; in assay [7], “in the range around 0.055 µM”. Moreover, the IC50 in assay [8] was greater than 10 µM.

With `C=CC(=O)N1CC(OC[C@H](C(=O)N[C@H]2Cc3cc(cc(C(F)F)c3)-c3ccc4c(c3)c(c(-c3cccnc3C(C)OC)n4CC)CC(C)(C)COC(=O)[C@@H]3CCCN(N3)C2=O)C(C)C)C1` (stereo partly drawn), the concentration for half-maximal inhibition (IC50) was greater than 10 µM in assay [3]; “in the range around 5.5 µM” in assay [4]; greater than 10 µM in assay [2]; greater than 10 µM in assay [5]; “in the range around 5.5 µM” in assay [6]; “in the range around 5.5 µM” in assay [7]. In assay [8], the IC50 is greater than 10 µM.

Regarding `C=CC(=O)N1CCC(F)(C(=O)N(C)[C@H](C(=O)N[C@H]2C[C@H]3CN(CCO3)c3ccc4c(c3)c(c(-c3cccnc3C(C)OC)n4CC)CC(C)(C)COC(=O)[C@@H]3CCCN(N3)C2=O)C(C)C)CC1` (stereo partly drawn), the IC50 result in assay [3] is “in the range around 5.5 µM”; in assay [4] it was “in the range around 0.55 µM”; in assay [2], “in the range around 5.5 µM”; in assay [5] it was “in the range around 5.5 µM”; in assay [6], “in the range around 5.5 µM”; in assay [7] it was “in the range around 0.055 µM”. Moreover, the IC50 entry in assay [8] was “in the range around 5.5 µM”.

In the case of `CCn1c(-c2cccnc2C(C)OC)c2c3cc(ccc31)-c1cccc(c1)C[C@H](NC(=O)[C@@H](COC1CN(C(=O)C#CC(C)(C)N3CCC3)C1)C(C)C)C(=O)N1CCC[C@H](N1)C(=O)OCC(C)(C)C2` (stereo partly drawn), the half-inhibitory concentration (IC50) was greater than 10 µM in assay [3]; “in the range around 5.5 µM” in assay [4]; “in the range around 5.5 µM” in assay [2]; greater than 10 µM in assay [5]; “in the range around 5.5 µM” in assay [6]; “in the range around 0.055 µM” in assay [7]. Further, the IC50 in assay [8] was greater than 10 µM.

With `COC(C)c1ncccc1-c1c2c3cc(ccc3n1CC(F)(F)F)-c1cc(F)cc(c1)C[C@H](NC(=O)[C@@H](COC1CN(C(=O)C#CC(C)(C)N(C)C)C1)C(C)C)C(=O)N1CCC[C@H](N1)C(=O)OCC(C)(C)C2` (stereo partly drawn), the IC50 entry is “in the range around 5.5 µM” in assay [3]; “in the range around 5.5 µM” in assay [4]; “in the range around 5.5 µM” in assay [2]; greater than 10 µM in assay [5]; “in the range around 5.5 µM” in assay [6]; less than 0.01 µM in assay [7]. Also, the IC50 in assay [8] is greater than 10 µM.

`CCn1c(-c2cccnc2C(C)OC)c2c3cc(ccc31)N1CCO[C@@H](C[C@H](NC(=O)[C@@H](COC3CN(C(=O)C#CC(C)(C)N(C)C)C3)C(C)C)C(=O)N3CCC[C@H](N3)C(=O)OCC(C)(C)C2)C1` (stereo partly drawn): the half-maximal inhibitory concentration (IC50) is greater than 10 µM in assay [3]; “in the range around 5.5 µM” in assay [4]; greater than 10 µM in assay [2]; greater than 10 µM in assay [5]; greater than 10 µM in assay [6]; less than 0.01 µM in assay [7]. Moreover, the half-inhibitory concentration (IC50) in assay [8] was greater than 10 µM.

The term IC50 denotes the point on the concentration scale where inhibition reaches its midpoint.
